Measurements reported in patent US20220125959A1, “PROSTATE-SPECIFIC MEMBRANE ANTIGEN (PSMA) INHIBITORS AS DIAGNOSTIC AND RADIONUCLIDE THERAPEUTIC AGENTS” (FIVE ELEVEN PHARMA INC., priority 2019, published 2022).

Key:
[1] = test system: PSMA-positive cell line, PIP PC3; test: In vitro cell uptake, PIP PC3 cells; type: cell-based
Procedure, shortened: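 Cellular uptake of [^177Lu]-labelled ligands was measured in PIP PC3 cells seeded at 5×10^5 cells/well in 12-well plates and grown 48 h in 1 mL medium. After two PBS washes and addition of 900 μL fresh medium, triplicate wells were incubated at 37° C. Cells were then washed twice, lysed in 1 mL of 0.5 M NaOH, and gamma-counted, with uptake expressed as % ID.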

[2] = test system: PSMA-negative cell line, PC3; test: In vitro cell uptake, PC3 cells; type: cell-based; conditions: PC3 (do not express PSMA), 60 min
Procedure, shortened: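 Cells grown 48 h, washed, then incubated at 37 °C with [^177Lu]-labelled ligand; nonspecific binding defined with 10 μM 2-PMPA. After washing and lysis in 0.5 M NaOH, activity counted in a gamma counter; uptake expressed as % ID, triplicates.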

[3] = Stability of injected doses after formulation; type: physicochemical; conditions: at 24 hr after formulation
Procedure, shortened: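 Ligand labeled with ^68Ga (90° C, 10 min) or ^177Lu (95° C, 1 hour) in NaOAc; radiochemical purity checked by radio-HPLC, with stability of formulated doses followed to 2 hr (^68Ga) or 48 hr (^177Lu). Mice received iv 100 μCi, 0.72 nmole ligand/mouse.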

[4] = test system: PC3-PIP (PSMA positive) and PC-3 tumors (PSMA negative); test: Biodistribution of 177Lu labeled compounds 42 and 51 in tumor bearing nude mice; type: in vivo, CD-1 male nude mice
Description: For iv injection 150 μL of labeled solution was diluted with saline to 3.75mL. Mice were injected with 150 μL of formulated dose. Injected radioactivity was 100 μCi and PSMA ligand amount was constant at 0.72 nmole/mouse.
Similarly, the tissue distribution of [^177Lu]42 and [^177Lu]51 was evaluated in mice bearing PIP PC3 (PSMA positive) and PC3 (PSMA negative) tumors on the left and right shoulder, respectively, over a period of 24 h (Table 4). […] The tumor specific uptake for [^177Lu]51 was higher than that observed for [^177Lu]42. […] Results of this study lend support for using these dual-targeted ^177Lu labeled agents for treatment of metastatic prostate cancer.

[5] = PIP PC3, 60 min, with PSMA inhibitor (2-PMPA, 2 uM)

## O=C([O-])CN1CCN(C(CCC(=O)NCC(=O)NC(Cc2ccc(OCC(=O)NC(Cc3ccccc3)C(=O)NCCCCC(NC(=O)NC(CCC(=O)O)C(=O)O)C(=O)O)cc2)C(=O)O)C(=O)[O-])CCN(CC(=O)[O-])CCN(C(CCC(=O)NCC(=O)NC(P(=O)(O)O)P(=O)(O)O)C(=O)O)CC1.[177Lu+3] (stereo not shown) [[^177Lu]42]
[1]; PIP PC3, 5 min
  In vitro cell uptake: 3.3 % ID per 5 × 10^5 cells
[1]; PIP PC3, 15 min
  In vitro cell uptake: 5.5 % ID per 5 × 10^5 cells
[1]; PIP PC3, 30 min
  In vitro cell uptake: 7.6 % ID per 5 × 10^5 cells
[1]; PIP PC3, 60 min
  In vitro cell uptake: 8.6 % ID per 5 × 10^5 cells
[1]; [5]
  In vitro cell uptake: 0.9 % ID per 5 × 10^5 cells
[1]; PIP PC3, 120 min
  In vitro cell uptake: 9.8 % ID per 5 × 10^5 cells
[2]
  In vitro cell uptake: 0.8 % ID per 5 × 10^5 cells
[3]
  Stability of injected doses: stable
[4]; 1 hr
  Biodistribution: Blood: 0.18 ± 0.05 % dose/g
  Biodistribution: Bone: 5.82 ± 1.59 % dose/g
  Biodistribution: Heart: 0.13 ± 0.03 % dose/g
  Biodistribution: Kidney: 27.52 ± 7.47 % dose/g
  Biodistribution: Lg Intestine: 0.11 ± 0.03 % dose/g
  Biodistribution: Liver: 0.12 ± 0.02 % dose/g
  Biodistribution: Lung: 0.38 ± 0.11 % dose/g
  Biodistribution: Muscle: 0.08 ± 0.02 % dose/g
  Biodistribution: PC3 tumor: 0.41 ± 0.10 % dose/g
  Biodistribution: PIP PC3 tumor: 11.29 ± 2.44 % dose/g
  Biodistribution: Pancreas: 0.20 ± 0.09 % dose/g
  Biodistribution: Skin: 0.22 ± 0.05 % dose/g
  Biodistribution: Sm Intestine: 0.24 ± 0.15 % dose/g
  Biodistribution: Spleen: 0.53 ± 0.17 % dose/g
  Biodistribution: Stomach: 0.17 ± 0.07 % dose/g
[4]; 4 hr
  Biodistribution: Blood: 0.02 ± 0.01 % dose/g
  Biodistribution: Bone: 5.62 ± 1.18 % dose/g
  Biodistribution: Heart: 0.06 ± 0.02 % dose/g
  Biodistribution: Kidney: 11.81 ± 5.81 % dose/g
  Biodistribution: Lg Intestine: 1.03 ± 1.01 % dose/g
  Biodistribution: Liver: 0.08 ± 0.02 % dose/g
  Biodistribution: Lung: 0.13 ± 0.04 % dose/g
  Biodistribution: Muscle: 0.05 ± 0.04 % dose/g
  Biodistribution: PC3 tumor: 0.28 ± 0.11 % dose/g
  Biodistribution: PIP PC3 tumor: 7.62 ± 1.60 % dose/g
  Biodistribution: Pancreas: 0.05 ± 0.02 % dose/g
  Biodistribution: Skin: 0.10 ± 0.03 % dose/g
  Biodistribution: Sm Intestine: 0.94 ± 1.12 % dose/g
  Biodistribution: Spleen: 0.18 ± 0.06 % dose/g
  Biodistribution: Stomach: 0.49 ± 0.60 % dose/g
[4]; 24 hr
  Biodistribution: Blood: 0.00 ± 0.00 % dose/g
  Biodistribution: Bone: 4.55 ± 0.26 % dose/g
  Biodistribution: Heart: 0.03 ± 0.01 % dose/g
  Biodistribution: Kidney: 2.62 ± 0.19 % dose/g
  Biodistribution: Lg Intestine: 0.37 ± 0.20 % dose/g
  Biodistribution: Liver: 0.06 ± 0.00 % dose/g
  Biodistribution: Lung: 0.04 ± 0.01 % dose/g
  Biodistribution: Muscle: 0.03 ± 0.02 % dose/g
  Biodistribution: PC3 tumor: 0.11 ± 0.04 % dose/g
  Biodistribution: PIP PC3 tumor: 4.72 ± 1.68 % dose/g
  Biodistribution: Pancreas: 0.01 ± 0.00 % dose/g
  Biodistribution: Skin: 0.05 ± 0.01 % dose/g
  Biodistribution: Sm Intestine: 0.06 ± 0.05 % dose/g
  Biodistribution: Spleen: 0.04 ± 0.01 % dose/g
  Biodistribution: Stomach: 0.14 ± 0.10 % dose/g
[4]; mouse, in vivo
  PC3 (PSMA negative) tumor uptake: very low uptake
  PIP PC3 (PSMA positive) tumor uptake: excellent
  Uptake in bone: high specific uptake in bone

## O=C(O)CC[C@H](NC(=O)N[C@@H](CCCCNC(=O)[C@H](Cc1ccccc1)NC(=O)COc1ccc(C[C@H](NC(=O)CNC(=O)CCC(C(=O)O)N2CCN(CC(=O)O)CCN(CC(=O)O)CCN(CC(=O)O)CC2)C(=O)NCC(=O)NC(P(=O)(O)O)P(=O)(O)O)cc1)C(=O)O)C(=O)O.[177Lu] (stereo partly shown) [[^177Lu]51]
[1]; PIP PC3
  Uptakes compared with reference ligand [177Lu]PSMA-617: much higher uptakes
[1]; PIP PC3, 5 min
  In vitro cell uptake: 4.4 % ID per 5 × 10^5 cells
[1]; PIP PC3, 15 min
  In vitro cell uptake: 8.4 % ID per 5 × 10^5 cells
[1]; PIP PC3, 30 min
  In vitro cell uptake: 13.4 % ID per 5 × 10^5 cells
[1]; PIP PC3, 60 min
  In vitro cell uptake: 17.4 % ID per 5 × 10^5 cells
[1]; [5]
  In vitro cell uptake: 1.1 % ID per 5 × 10^5 cells
[1]; PIP PC3, 120 min
  In vitro cell uptake: 19.3 % ID per 5 × 10^5 cells
[2]
  In vitro cell uptake: 0.7 % ID per 5 × 10^5 cells
[3]
  Stability of injected doses: stable
[4]; 1 hr
  Biodistribution: Blood: 0.18 ± 0.04 % dose/g
  Biodistribution: Bone: 6.52 ± 0.34 % dose/g
  Biodistribution: Heart: 0.20 ± 0.06 % dose/g
  Biodistribution: Kidney: 90.59 ± 18.47 % dose/g
  Biodistribution: Lg Intestine: 0.10 ± 0.04 % dose/g
  Biodistribution: Liver: 0.23 ± 0.03 % dose/g
  Biodistribution: Lung: 0.62 ± 0.09 % dose/g
  Biodistribution: Muscle: 0.11 ± 0.03 % dose/g
  Biodistribution: PC3 tumor: 0.53 ± 0.12 % dose/g
  Biodistribution: PIP PC3 tumor: 14.70 ± 1.29 % dose/g
  Biodistribution: Pancreas: 0.37 ± 0.11 % dose/g
  Biodistribution: Skin: 0.35 ± 0.05 % dose/g
  Biodistribution: Sm Intestine: 0.16 ± 0.03 % dose/g
  Biodistribution: Spleen: 1.33 ± 0.41 % dose/g
  Biodistribution: Stomach: 0.11 ± 0.03 % dose/g
[4]; 4 hr
  Biodistribution: Blood: 0.03 ± 0.01 % dose/g
  Biodistribution: Bone: 6.74 ± 0.71 % dose/g
  Biodistribution: Heart: 0.05 ± 0.00 % dose/g
  Biodistribution: Kidney: 35.24 ± 5.28 % dose/g
  Biodistribution: Lg Intestine: 0.22 ± 0.15 % dose/g
  Biodistribution: Liver: 0.16 ± 0.00 % dose/g
  Biodistribution: Lung: 0.20 ± 0.06 % dose/g
  Biodistribution: Muscle: 0.03 ± 0.00 % dose/g
  Biodistribution: PC3 tumor: 0.20 ± 0.03 % dose/g
  Biodistribution: PIP PC3 tumor: 15.12 ± 1.36 % dose/g
  Biodistribution: Pancreas: 0.11 ± 0.03 % dose/g
  Biodistribution: Skin: 0.11 ± 0.01 % dose/g
  Biodistribution: Sm Intestine: 0.21 ± 0.29 % dose/g
  Biodistribution: Spleen: 0.39 ± 0.12 % dose/g
  Biodistribution: Stomach: 0.26 ± 0.23 % dose/g
[4]; 24 hr
  Biodistribution: Blood: 0.00 ± 0.00 % dose/g
  Biodistribution: Bone: 5.51 ± 0.66 % dose/g
  Biodistribution: Heart: 0.03 ± 0.01 % dose/g
  Biodistribution: Kidney: 4.18 ± 1.74 % dose/g
  Biodistribution: Lg Intestine: 0.49 ± 0.34 % dose/g
  Biodistribution: Liver: 0.14 ± 0.02 % dose/g
  Biodistribution: Lung: 0.10 ± 0.04 % dose/g
  Biodistribution: Muscle: 0.02 ± 0.00 % dose/g
  Biodistribution: PC3 tumor: 0.16 ± 0.02 % dose/g
  Biodistribution: PIP PC3 tumor: 10.75 ± 2.52 % dose/g
  Biodistribution: Pancreas: 0.03 ± 0.00 % dose/g
  Biodistribution: Skin: 0.07 ± 0.02 % dose/g
  Biodistribution: Sm Intestine: 0.30 ± 0.33 % dose/g
  Biodistribution: Spleen: 0.15 ± 0.04 % dose/g
  Biodistribution: Stomach: 0.40 ± 0.56 % dose/g
[4]; mouse, in vivo
  Bone uptake compared with [177Lu]42: consistently higher
  PC3 (PSMA negative) tumor uptake: very low uptake
  PIP PC3 (PSMA positive) tumor uptake: excellent
  Tumor specific uptake compared with [177Lu]42: higher
  Uptake in bone: high specific uptake in bone
